Results from US20260008752A1, “POLYMORPHIC FORMS OF FLORBETAPIR PRECURSOR AV-105” (ELI LILLY AND COMPANY, priority 2022, published 2026).
≈ marks a conversion by molar mass, not a printed value.

How the values were obtained:
Format in all cases: physicochemical
[1] = Equilibrium solubility, gravimetric, from slurry supernatants; details: thermodynamic from solid
Description: Measured aliquots of supernatants isolated from the solids were placed in pre-weighed TGA pans for evaporation.
(§1) Unless otherwise specified, solids of AV-105 were composed of Form A and were agitated in specified solvents at specified temperatures. Solvents were replaced after approximately 24 hours, where possible. After ˜2 weeks, solids were separated from supernatants via centrifugation with filtration and analyzed by XRPD. Solubilities were evaluated as a single, small scale measurement via gravimetric method using supernatants separated from the solids. Organic solvents used are anhydrous. […] Approximate solvent ratios are expressed in % by volume. Temperatures and duration of experiments are approximate.

[2] = Long term slurry experiments (solid form by XRPD after ~2 weeks)
Description: Samples of starting material were suspended in specified solvents and triturated at specified temperatures. After approximately 24 hours, suspensions were transferred into Spin-X centrifuge tubes equipped with solids 0.45-μm nylon filters and centrifuged. Solids separated were resuspended in fresh solvents and the agitation was continued for a total of 2 weeks. Solids were isolated as described above and analyzed by XRPD.
as §1

[3] = Differential scanning calorimetry (heat-of-fusion rule); details: at all temperatures; forms monotropically related
Description: (onset) with a heat of fusion of 78.9 J/g (FIG. 4). […] This is consistent with the screen findings, where conversion of Form A into Form B has been observed in a wide temperature range, between 2-8° C. and 45° C.

## Cc1ccc(S(=O)(=O)OCCOCCOCCOc2ccc(/C=C/c3ccc(N(C)C(=O)OC(C)(C)C)cc3)cn2)cc1 [AV-105]
[1]; ACN/water 50/50 slurry supernatant, aqueous with cosolvent or surfactant or cyclodextrin, ACN/water 50/50, Aw 0.90, RT, solid Form B
  solubility: 2 mg/mL (≈ 3.26 mM)
[1]; CPME slurry supernatant, 2 °C, organic solvent or mixture, CPME, 2-8° C., solid Form B
  solubility: 25 mg/mL (≈ 40.8 mM)
[1]; CPME slurry supernatant, organic solvent or mixture, CPME, RT, solid Form B
  solubility: 47 mg/mL (≈ 76.7 mM)
[1]; EtOAc/heptane 40/60 slurry supernatant, 2 °C, organic solvent or mixture, EtOAc/heptane 40/60, 2-8° C., solid Form B
  solubility: 6 mg/mL (≈ 9.79 mM)
[1]; EtOAc/heptane 40/60 slurry supernatant, 35 °C, organic solvent or mixture, EtOAc/heptane 40/60, solid Form B
  solubility: 34 mg/mL (≈ 55.5 mM)
[1]; EtOAc/heptane 40/60 slurry supernatant, organic solvent or mixture, EtOAc/heptane 40/60, RT, solid Form B
  solubility: 27 mg/mL (≈ 44.1 mM)
[1]; EtOH slurry supernatant, 2 °C, organic solvent or mixture, EtOH, 2-8° C., with solvent replacement, solid Form B
  solubility: 3 mg/mL (≈ 4.9 mM)
[1]; EtOH slurry supernatant, organic solvent or mixture, EtOH, RT, with solvent replacement (a), starting material mixture of Form A/Form B, solid Form B
  solubility: 7 mg/mL (≈ 11.4 mM)
[1]; EtOH slurry supernatant, organic solvent or mixture, EtOH, RT, with solvent replacement, solid Form B
  solubility: 7 mg/mL (≈ 11.4 mM)
[1]; IPA slurry supernatant, 45 °C, organic solvent or mixture, IPA, solid Form B
  solubility: 44 mg/mL (≈ 71.8 mM)
[1]; IPA slurry supernatant, organic solvent or mixture, IPA, RT, with solvent replacement, solid Form B
  solubility: 4 mg/mL (≈ 6.53 mM)
[1]; IPrOAc slurry supernatant, 35 °C, organic solvent or mixture, IPrOAc, solid Form B
  solubility: 232 mg/mL (≈ 379 mM)
[1]; IPrOAc slurry supernatant, organic solvent or mixture, IPrOAc, RT, solid Form B
  solubility: 93 mg/mL (≈ 152 mM)
[1]; MIBK slurry supernatant, 2 °C, organic solvent or mixture, MIBK, 2-8° C., solid Form B
  solubility: 128 mg/mL (≈ 209 mM)
[1]; MIBK slurry supernatant, 35 °C, organic solvent or mixture, MIBK, solid Form B
  solubility: 277 mg/mL (≈ 452 mM)
[1]; MIBK slurry supernatant, organic solvent or mixture, MIBK, RT, solid Form B
  solubility: 137 mg/mL (≈ 224 mM)
[1]; MIBK/heptane 40/60 slurry supernatant, organic solvent or mixture, MIBK/heptane 40/60, RT, solid Form B
  solubility: 15 mg/mL (≈ 24.5 mM)
[1]; MTBE slurry supernatant, organic solvent or mixture, MTBE, RT, solid Form B
  solubility: 34 mg/mL (≈ 55.5 mM)
[1]; MeOH slurry supernatant, 2 °C, organic solvent or mixture, MeOH, 2-8° C., with solvent replacement, solid Form B
  solubility: 6 mg/mL (≈ 9.79 mM)
[1]; MeOH slurry supernatant, organic solvent or mixture, MeOH, Freezer, solid Form B + small additional peaks
  solubility: 5 mg/mL
[1]; MeOH slurry supernatant, organic solvent or mixture, MeOH, RT, with solvent replacement, solid Form B
  solubility: 13 mg/mL (≈ 21.2 mM)
[1]; THF/cyclohexane 30/70 slurry supernatant, 2 °C, organic solvent or mixture, THF/cyclohexane 30/70, 2-8° C., solid Form B
  solubility: 55 mg/mL (≈ 89.8 mM)
[1]; THF/cyclohexane 30/70 slurry supernatant, organic solvent or mixture, THF/cyclohexane 30/70, RT, solid Form B
  solubility: 370 mg/mL (≈ 604 mM)
[2]; ACN/water 50/50, Aw 0.90, RT, start Form A, ~2 weeks slurry
  XRPD Results/observations: Form B
[2]; CPME, 2-8° C., start Form A, ~2 weeks slurry
  XRPD Results/observations: Form B
[2]; CPME, RT, start Form A, ~2 weeks slurry
  XRPD Results/observations: Form B
[2]; EtOAc/heptane 40/60, 2-8° C., start Form A, ~2 weeks slurry
  XRPD Results/observations: Form B
[2]; EtOAc/heptane 40/60, 35° C., start Form A, ~2 weeks slurry
  XRPD Results/observations: Form B
[2]; EtOAc/heptane 40/60, RT, start Form A, ~2 weeks slurry
  XRPD Results/observations: Form B
[2]; EtOH, 2-8° C., with solvent replacement, start Form A
  XRPD Results/observations: Form B
[2]; EtOH, 45° C. (a), starting material mixture of Form A/Form B
  XRPD Results/observations: Yellow gel
[2]; EtOH, 45° C., start Form A
  XRPD Results/observations: Yellow solution,
[2]; EtOH, RT, with solvent replacement (a), starting material mixture of Form A/Form B
  XRPD Results/observations: Form B
[2]; EtOH, RT, with solvent replacement, start Form A
  XRPD Results/observations: Form B
[2]; IPA, 45° C., start Form A
  XRPD Results/observations: Form B
[2]; IPA, RT, with solvent replacement, start Form A
  XRPD Results/observations: Form B
[2]; IPrOAc, 35° C., start Form A
  XRPD Results/observations: Form B
[2]; IPrOAc, RT, start Form A
  XRPD Results/observations: Form B
[2]; MIBK/heptane 40/60, RT, start Form A
  XRPD Results/observations: Form B
[2]; MIBK, 2-8° C., start Form A
  XRPD Results/observations: Form B
[2]; MIBK, 35° C., start Form A
  XRPD Results/observations: Form B
[2]; MIBK, RT, start Form A
  XRPD Results/observations: Form B
[2]; MTBE, RT, start Form A
  XRPD Results/observations: Form B
[2]; MeOH, 2-8° C., with solvent replacement, start Form A
  XRPD Results/observations: Form B
[2]; MeOH, 45° C., start Form A
  XRPD Results/observations: Orange gel
[2]; MeOH, Freezer, start Form A
  XRPD Results/observations: Form B + small
[2]; MeOH, RT, with solvent replacement, start Form A
  XRPD Results/observations: Form B
[2]; THF/cyclohexane 30/70, 2-8° C., start Form A
  XRPD Results/observations: Form B
[2]; THF/cyclohexane 30/70, RT, start Form A
  XRPD Results/observations: Form B
[2]; Water, 70° C., start Form A
  XRPD Results/observations: Orange gel after
[2]; Water, RT, start Form A
  XRPD Results/observations: Form A

## Cc1ccc(S(=O)(=O)OCCOCCOCCOc2ccc(/C=C/c3ccc(N(C)C(=O)OC(C)(C)C)cc3)cn2)cc1 [Form A]
[2]; all solvent systems tested between 2-8° C. and 45° C.
  Form change on slurrying in a variety of solvent systems: conversion to Form B

## Cc1ccc(S(=O)(=O)OCCOCCOCCOc2ccc(/C=C/c3ccc(N(C)C(=O)OC(C)(C)C)cc3)cn2)cc1 [Form B]
[3]
  Relative thermodynamic stability from DSC (heat-of-fusion rule): more stable than Form A
[2]; between 2-8° C. and 45° C.
  Thermodynamic stability from slurry experiments: thermodynamically the more stable form
